The text below walks through data of patent publication US10683288B2, “Epothilone B and dictyostatin analogs, their preparation and use” (The Trustees of Columbia University in the City of New York, priority 2015, dated 2020).

One test concerns DLD1 (colon). The test is described as follows: cell growth inhibition, dictyostatin analogs, DLD1. It counts as cell-based. The note with it: for GI50: Homo sapiens. The protocol: (§1) The C(6)- and C(12)-(4-azidobutyl) analogs 1 and 2 as well as triazole 26 and amide 27 were assayed for cell growth inhibition against four cell lines (PC3 (prostate), 1A9 (ovarian), A549 (lung), and DLD1 (colon)) alongside reference samples of synthetic dictyostatin and paclitaxel (Table 1a).

For test [1], the system named is PC3 (prostate). The test is described as follows: cell growth inhibition, dictyostatin analogs, PC3. The note with it: for GI50: read-out: GI50 PC3. It counts as cell-based. The protocol:
as §1

The next test concerns 1A9 (ovarian). Briefly: cell growth inhibition, dictyostatin analogs, 1A9. The conditions noted are these: for GI50: read-out: GI50 1A9. It counts as cell-based. The protocol: as §1
The test system of another test is A549 (lung). Briefly: cell growth inhibition, dictyostatin analogs, A549. It counts as cell-based. The note with it: for GI50: Homo sapiens. As for the experimental part:
as §1

The subject of test [2] is PC3 (prostate), 1A9 (ovarian), A549 (lung), and DLD1 (colon) cell lines. Briefly: cell growth inhibition, dictyostatin analogs, summary over four cell lines. It counts as cell-based. As for the experimental part: as §1
The next test relates to H522 (lung). The test is described as follows: cell growth inhibition, Epo B analogs, H522. It counts as cell-based. The protocol:
(§2) Compounds 19, 20 and 21 were assayed for cell growth inhibition against four cell lines (PC3 (prostate), MCF7 breast), H522 (lung), and OVCAR8 (ovarian)) alongside reference samples of Epo A, ixabepilone and taxol (Table 1).

A further test deals with MCF7 (breast). The test is described as follows: cell growth inhibition, Epo B analogs, MCF7. It counts as cell-based. As for the experimental part:
as §2

Test [3] concerns PC3 (prostate). The test is described as follows: cell growth inhibition, Epo B analogs, PC3. It counts as cell-based. The conditions noted are these: read-out: IC50 PC3 (Prostate). The protocol: as §2
The test system of the next test is OVCAR8 (ovarian). The test is described as follows: cell growth inhibition, Epo B analogs, OVCAR8. It counts as cell-based. The protocol: as §2
The conditions of test [4]: literature; cited from earlier work.
Setting [5] is: Homo sapiens, NCI-H522, read-out: IC50 H522 (Lung).
Where [6] appears, read: Homo sapiens, MCF7, read-out: IC50 MCF7 (Breast).
The mark [7] stands for this setting: Homo sapiens, OVCAR-8, read-out: IC50 OVCAR8 (Ovarian).
[8] abbreviates: Homo sapiens, NCI-H522, H522 (Lung) cell line, read-out: IC50 H522 (Lung).
Where [9] appears, read: Homo sapiens, MCF7 (Breast) cell line, read-out: IC50 MCF7 (Breast).
The mark [10] stands for this setting: Homo sapiens, OVCAR-8, OVCAR8 (Ovarian) cell line, read-out: IC50 OVCAR8 (Ovarian).

Read-outs that look alike come from different tables or passages of the source.

By GI50 is commonly meant the concentration that inhibits growth by half. As for `C=C/C=C\[C@H](C)[C@@H]1OC(=O)/C=C\C=C\[C@@H](CCCCN=[N+]=[N-])[C@@H](O)C[C@H](O)/C=C\[C@H](C)[C@H](O)[C@@H](C)C[C@@H](C)CC[C@@H](O)[C@@H]1C` [C(6) analog 1], the GI50 is 1.1 nM in the test with DLD1 (colon) (DLD-1, read-out: GI50 DLD1); 1.9 nM with PC3 (prostate) [1] (Prostate cell); 2.2 nM in the test on 1A9 (ovarian); 1.1 nM in the test with A549 (lung) (A549, read-out: GI50 A549). Further, the “GI50 values relative to dictyostatin” value in [2] (four cell lines) was “only slightly attenuated relative to dictyostatin”.

A word on the IC50: it is the point on the concentration scale where inhibition reaches its midpoint. On to `CC(=O)NCCCC[C@H]1C(=O)C(C)(C)[C@@H](O)CC(=O)O[C@H](/C(C)=C/c2csc(C)n2)C[C@@H]2OC2(C)CCC[C@H](C)[C@@H]1O` (stereo partly drawn) [Compound 21], for which the half-inhibitory concentration (IC50) with H522 (lung) (setting [5]) is 0.6 nM; with MCF7 (breast) (setting [6]), no more than 0.65 nM; in the test on PC3 (prostate) [3] (Prostate cell) it was 1 nM; in the test with OVCAR8 (ovarian) (setting [7]), 2.2 nM.

Consider `C/C(=C\c1csc(C)n1)[C@@H]1C[C@@H]2O[C@@H]2CCC[C@H](C)[C@H](O)[C@@H](C)C(=O)C(C)(C)[C@@H](O)CC(=O)O1` [Epo A, epothilone A], for which the IC50 in the test on H522 (lung) (H522 (Lung) cell line, read-out: IC50 H522 (Lung)) is 5.5 nM; with MCF7 (breast) (MCF7 (Breast) cell line, read-out: IC50 MCF7 (Breast)), 7 nM; in the test with PC3 (prostate) [3] (PC3 (Prostate) cell line), 7 nM; with OVCAR8 (ovarian) (OVCAR8 (Ovarian) cell line, read-out: IC50 OVCAR8 (Ovarian)), 6 nM.

For the molecule `C=C/C=C\[C@H](C)[C@@H]1OC(=O)/C=C\C=C\[C@@H](C)[C@@H](O)C[C@H](O)/C=C\[C@H](C)[C@H](O)[C@@H](C)C[C@@H](C)CC[C@@H](O)[C@@H]1C` [dictyostatin], the GI50 with DLD1 (colon) (DLD-1, read-out: GI50 DLD1) came to 0.4 nM; with PC3 (prostate) [1] (Prostate cell), 1.3 nM; in the test with 1A9 (ovarian), 0.8 nM; in the test on A549 (lung) (A549, read-out: GI50 A549), 0.3 nM.

`C/C(=C\c1csc(C)n1)[C@@H]1C[C@@H]2OC2(C)CCC[C@H](C)[C@H](O)[C@@H](CCCCN=[N+]=[N-])C(=O)C(C)(C)[C@@H](O)CC(=O)O1` (stereo partly drawn) [Compound 19]: the IC50 in the test on H522 (lung) (setting [5]) is 0.4 nM; in the test with MCF7 (breast) (setting [6]), less than 0.65 nM; in the test with PC3 (prostate) [3] (Prostate cell), 2.1 nM; in the test on OVCAR8 (ovarian) (setting [7]) it was 1 nM.

Take `CC(=O)O[C@H]1C(=O)[C@@]2(C)[C@H]([C@H](OC(=O)c3ccccc3)[C@]3(O)C[C@H](OC(=O)[C@H](O)[C@@H](NC(=O)c4ccccc4)c4ccccc4)C(C)=C1C3(C)C)[C@]1(OC(C)=O)CO[C@@H]1C[C@@H]2O` [Taxol, paclitaxel, reference compound]: the concentration for 50% growth inhibition (GI50) amounted to 15 nM in the test with DLD1 (colon) (DLD-1, DLD1 (colon) cell line, read-out: GI50 DLD1); 1.9 nM with PC3 (prostate) [1] (PC3 (Prostate) cell line); 0.4 nM with 1A9 (ovarian) (1A9 (ovarian) cell line); 1.2 nM with A549 (lung) (A549 (lung) cell line, read-out: GI50 A549). The half-maximal inhibitory concentration (IC50) in the test with H522 (lung) (setting [8]) is 2.6 nM; in the test on MCF7 (breast) (setting [9]), less than 0.13 nM; in the test with PC3 (prostate) [3] (PC3 (Prostate) cell line), 6 nM; with OVCAR8 (ovarian) (setting [10]), 1.9 nM.

`C/C(=C\c1csc(C)n1)[C@@H]1C[C@@H]2O[C@]2(C)CCC[C@H](C)[C@H](O)[C@@H](C)C(=O)C(C)(C)[C@@H](O)CC(=O)N1` [Ixabepilone]: the half-inhibitory concentration (IC50) in the test with H522 (lung) (setting [8]) worked out at 2.5 nM; in the test with MCF7 (breast) (setting [9]), 2 nM; in the test on PC3 (prostate) [3] (PC3 (Prostate) cell line) it was 4 nM; in the test on OVCAR8 (ovarian) (setting [10]), 3.3 nM.

On to `C=C/C=C\[C@H](C)[C@@H]1OC(=O)/C=C\C=C\[C@@H](CCCCNC(C)=O)[C@@H](O)C[C@H](O)/C=C\[C@H](C)[C@H](O)[C@@H](C)C[C@@H](C)CC[C@@H](O)[C@@H]1C` [amide 27], for which the GI50 with DLD1 (colon) (DLD-1, read-out: GI50 DLD1) was found to be 32 nM; with PC3 (prostate) [1] (Prostate cell) it was 50 nM; with 1A9 (ovarian) it was 30 nM; in the test on A549 (lung) (A549, read-out: GI50 A549), 22 nM. Besides, the “reduction in potency relative to azide 1” value in test [2] (against all four cell lines) is recorded as 1-2 orders of magnitude.

Turning to C(6)-normethyl dictyostatin, in test [4], the “loss of potency relative to the natural product dictyostatin” value is ≤ 1 order of magnitude.

For the molecule C(6)-epi dictyostatin, the “potency relative to the natural product dictyostatin, in words” value in [4] is listed as “as potent as the natural product”.

`C=C/C=C\[C@H](C)[C@@H]1OC(=O)/C=C\C=C\[C@@H](CCCCn2nnc3c2CC[C@@H]2[C@@H](CO)[C@@H]2CC3)[C@@H](O)C[C@H](O)/C=C\[C@H](C)[C@H](O)[C@@H](C)C[C@@H](C)CC[C@@H](O)[C@@H]1C` [triazole 26]: the “activity relative to azide 1” value is given as “more substantial (though not catastrophic) reductions in potency” in the test with DLD1 (colon) (DLD1 cell line), “only slightly diminished from that of azide 1” with PC3 (prostate) [1] (PC3 cell line), “only slightly diminished from that of azide 1” in the test on 1A9 (ovarian) (1A9 cell line) and “more substantial (though not catastrophic) reductions in potency” in the test with A549 (lung) (A549 cell line). Further, the concentration for 50% growth inhibition (GI50) with DLD1 (colon) (DLD-1, read-out: GI50 DLD1) was found to be 13 nM; with PC3 (prostate) [1] (Prostate cell), 4.8 nM; with 1A9 (ovarian) it was 8.4 nM; in the test with A549 (lung) (A549, read-out: GI50 A549), 25 nM.
